Columns and labels:
Assay type in all cases: cell-based, human
SKBR3 cells [1] = assay: Nuclear condensation or blebbing assay (doxorubicin-induced apoptosis)
Description: (§1) FIGS. 1A-D illustrate that the protective effect of EGF from doxorubicin-induced apoptosis is blocked by MDC in SKBR3 cells. In FIG. 11A, nearly confluent cultures of SKBR3 and MDAMB231 cells were placed in low serum medium. The following day, the cells were exposed to low serum medium +/−0.25 μM doxorubicin (Dox) for the times indicated and subsequently lysed. The presence of the activated form of caspase 3 (cleaved caspase 3) and actin (actin) in the cell extracts was assessed by Western blot analysis. In FIG. 11B, SKBR3 and MDAMB231 cells were maintained in low serum medium (0) or treated with 10 μM MDC (MDC) for 1.5 days. During this incubation, the SKBR3 cell cultures were also stimulated with +/−100 ng/ml EGF or +/−5 μM RA. All cell cultures were then treated with +/−0.25 μM doxorubicin (Dox) for about 1 day and the cells were scored for programmed cell death as described in Example 13. The assay was performed three times and the average percentage of cell death was plotted (FIG. 11C).
(§2) NIH3T3 cells were grown in Dulbecco's modified Eagle's medium containing 10% calf serum and 100 units/ml penicillin. SKBR3 and MDAMB231 cells were grown in RPMI 1640 medium containing 10% fetal bovine serum and 100 units/ml penicillin. The cell lines were maintained in a humidified atmosphere with 5% CO2 at 37° C. For the various treatments described, the cells were grown to near confluence in medium containing 10% serum, and then medium containing 1% serum or no serum with 5 μM RA, and/or 100 ng/ml EGF, +/−7 μM LY294002, and +/−0.2 μM doxorubicin were added for the appropriate amount of time. Cells were rinsed with phosphate-buffered saline (PBS) and then lysed with cell lysis buffer (10 mM Na2HPO4, 150 mM NaCl, 1% Triton X-100, 0.5% sodium deoxycholate, 0.1% SDS, 0.004% NaF, 1 mM NaVO4, 25 mM β-glycerophosphoric acid, 100 μg/ml phenylmethanesulfonyl fluoride, and 1 μg/ml each aprotinin and leupeptin, pH 7.35). The lysates were clarified by centrifugation at 12,000×g for 10 minutes at 4° C. Protein concentrations were determined using the Bio-Rad DC protein assay.
(§3) Cells were seeded in 6-well dishes and grown in complete medium for 2 days. The cells were then incubated in medium containing 1% serum +/−5 μM RA, +/−100 ng/ml EGF, and +/−10 μM MDC for 2 days. The cultures were then incubated with fresh medium containing RA, EGF, and MDC and +/−0.2 μM doxorubicin for an additional 1.5 days and were fixed and stained with 4,6-diamidino-2-phenylindole (2 μg/ml) for viewing by fluorescence microscopy. Apoptotic cells were identified by condensed nuclei and/or blebbing.

MDAMB231 cells [2] = assay: as above; details: FIG. 11C
Description: as §1, §2, §3

SKBR3 cells [3] = assay: Western blot for cleaved (activated) caspase 3; details: 24 hours of incubation with doxorubicin, FIG. 11A
Description: as §1
(§4) NIH3T3 cells were grown in Dulbecco's modified Eagle's medium containing 10% calf serum and 100 units/ml penicillin. SKBR3 and MDAMB231 cells were grown in RPMI 1640 medium containing 10% fetal bovine serum and 100 units/ml penicillin. The cell lines were maintained in a humidified atmosphere with 5% CO2 at 37° C. […] Protein concentrations were determined using the Bio-Rad DC protein assay. […]

MDAMB231 cells [4] = assay: Western blot for cleaved (activated) caspase 3; details: MDAMB231 cells exposed to doxorubicin; FIG. 11A
Description: as §1, §4

Row | SMILES | effect on the pro-survival effect of EGF from doxorubicin-induced apoptosis (SKBR3 cells [1]; SKBR3 cells incubated with MDC (10 μM), EGF and doxorubicin) | susceptibility to doxorubicin-induced apoptosis compared to doxorubicin treatment alone (MDAMB231 cells [2]; MDAMB231 cells, 10 μM MDC plus doxorubicin) | cells displaying nuclear condensation or blebbing (SKBR3 cells [1]; SKBR3 cells exposed to doxorubicin (0.25 μM, about 1 day), low serum, FIG. 11B) | apoptotic rate (MDAMB231 cells [2]; MDAMB231 cells exposed to doxorubicin (0.25 μM)) | cleaved or activated caspase 3 (SKBR3 cells [3]) | cleaved form of caspase 3 (MDAMB231 cells [4])
1 | CN(C)c1cccc2c(S(=O)(=O)NCCCCCN)cccc12 [MDC, monodansylcadaverine] | nearly completely eliminated the pro-survival effect of EGF | slightly more than twice as susceptible | – | – | – | –
2 | COc1cccc2c1C(=O)c1c(O)c3c(c(O)c1C2=O)C[C@@](O)(C(=O)CO)C[C@@H]3O[C@H]1C[C@H](N)[C@H](O)[C@H](C)O1 [doxorubicin] | – | – | ~80% | 25% | easily detected | failed to induce the cleaved form of caspase 3 to the same extent as in SKBR3 cells

From patent US20040259176A1, “Structural basis for the guanine nucleotide-binding activity of tissue transglutaminase and its regulation of transamidation activity” (priority 2003, published 2004)
